From PubChem BioAssay AID1645866 (Buhrlage Lab, Dana-Farber Cancer Institute and Novartis …, 2021)
Calls of active or inactive are those of the source.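 Rule for the calls: active = in confirmatory dose-response testing, peak deubiquitinase inhibition of 30% or more; inactive = the rest.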

target: Ubiquitin carboxyl-terminal hydrolase 28 (Homo sapiens) (UniProt Q96RU2); assay: Ubiquitin-specific peptidase 28 DUB inhibitors, biochemical concentration-dependence assay, validation of primary screening hits (AID 1645866); settings: purified USP28, ubiquitin-rhodamine fluorescence, 30 min
Sequence (Q96RU2 whole entry, looked up): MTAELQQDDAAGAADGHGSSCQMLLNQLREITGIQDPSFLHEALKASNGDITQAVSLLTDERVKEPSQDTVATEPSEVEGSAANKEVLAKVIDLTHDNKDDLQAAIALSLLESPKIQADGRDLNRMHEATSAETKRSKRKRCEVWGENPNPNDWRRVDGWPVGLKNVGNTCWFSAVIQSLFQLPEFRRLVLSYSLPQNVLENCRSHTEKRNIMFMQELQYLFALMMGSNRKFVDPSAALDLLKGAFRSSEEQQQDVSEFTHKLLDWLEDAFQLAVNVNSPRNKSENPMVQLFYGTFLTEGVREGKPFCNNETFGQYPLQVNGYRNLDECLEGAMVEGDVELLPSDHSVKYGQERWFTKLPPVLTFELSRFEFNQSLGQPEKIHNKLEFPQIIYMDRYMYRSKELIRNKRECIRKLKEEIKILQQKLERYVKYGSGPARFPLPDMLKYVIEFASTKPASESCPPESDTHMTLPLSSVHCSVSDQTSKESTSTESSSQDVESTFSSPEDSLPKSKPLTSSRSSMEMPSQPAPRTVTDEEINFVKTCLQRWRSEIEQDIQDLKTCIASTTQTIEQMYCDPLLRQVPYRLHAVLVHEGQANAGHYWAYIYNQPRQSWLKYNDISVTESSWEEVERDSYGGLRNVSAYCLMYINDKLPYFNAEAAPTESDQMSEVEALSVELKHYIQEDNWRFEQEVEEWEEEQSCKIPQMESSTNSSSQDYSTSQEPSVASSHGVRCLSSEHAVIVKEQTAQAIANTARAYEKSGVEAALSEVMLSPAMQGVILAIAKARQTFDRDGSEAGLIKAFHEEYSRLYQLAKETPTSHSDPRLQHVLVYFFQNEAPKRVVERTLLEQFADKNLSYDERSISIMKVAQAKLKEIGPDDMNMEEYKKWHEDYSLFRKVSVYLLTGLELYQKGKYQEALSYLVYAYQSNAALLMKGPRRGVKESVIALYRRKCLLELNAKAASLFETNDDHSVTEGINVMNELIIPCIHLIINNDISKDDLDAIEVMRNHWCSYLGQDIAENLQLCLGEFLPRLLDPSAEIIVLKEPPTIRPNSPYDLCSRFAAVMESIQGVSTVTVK

Compound | IC50
CCCn1c(=O)c(-c2ccc(C(=O)NCc3ccc(OC)cc3)cc2)nc2cccnc21 | 1.8 µM
CN1C(=O)[C@]23CC4=CC=C[C@H](O)[C@H]4N2C(=O)[C@@]1(CO)SS3 | > 50 µM (inactive)
Cc1ccc(Cl)cc1NC(=O)COC(=O)c1ccc2ccccc2n1 | > 50 µM (inactive)
O=C(COc1ccc(Cl)cc1Cl)Nc1ccccc1-c1nc2ccccc2[nH]1 | 2.38 µM
Cc1c(C(=O)Nc2ccc(-c3nnc4n3CCCCC4)cc2)oc2c1ccc1ccccc12 | 4.09 µM
Cc1ccc(S(=O)(=O)c2cnc(SCC(=O)Nc3ccc(Cl)cc3)nc2N)cc1C | 39.5 µM
COc1ccc(NC(=O)CN2C(=O)c3ccccc3Sc3ccc(C(=O)N4CCCC4)cc32)cc1OC | 34.2 µM
COc1ccc(NC(=O)C2CCCN(S(=O)(=O)N3CCCCCC3)C2)cc1 (centres undefined) | 21.8 µM
C=C1CCC2[C@](C)(CCC[C@]2(C)C(=O)OC)[C@H]1CCc1ccoc1CNC(C)C (some centres undefined) | > 50 µM (inactive)
O=C(CNS(=O)(=O)c1ccc(F)cc1)N1CCCC(c2nnc3ccccn23)C1 (centres undefined) | 24.4 µM
CC(=O)N1CCc2cc(S(=O)(=O)NCCC(=O)Nc3cccc(C)c3C)ccc21 | 34 µM
O=C(COc1nc2ccccc2nc1N1CCOCC1)Nc1cccc(S(=O)(=O)N2CCCCC2)c1 | > 50 µM (inactive)
Cc1ccc(-c2nc(NC(=O)COc3ccc(Cl)cc3)no2)cc1 | 4.74 µM
Cc1ccnc(NC(=O)c2ccn(COc3ccc(Cl)cc3)n2)c1 | 21.9 µM
CCn1cnc2ccc(C(=O)NC3CC3)cc2c1=O | 20.2 µM
O=C1c2ccccc2NC2(C(=O)Nc3ccc(Br)cc32)N1c1ccccc1 (centres undefined) | 3.31 µM
CCc1ccc(NC(=O)COC(=O)c2n[nH]c3ccccc23)cc1 | 12 µM
O=C(Cn1nnc(-c2ccc(F)cc2)n1)NCCc1ccccc1 | 44.3 µM
COc1cc(/C=C/C(=O)OCC(=O)Nc2ccc([N+](=O)[O-])cc2OC)ccc1O | 18.8 µM
COC(=O)c1ccc(Cn2cnc3ccc(F)cc3c2=O)o1 | 3.97 µM
CCc1ccc2c(c1)[C@]1(C(=O)N2)[C@@H]2C(=O)N(c3ccc(Cl)cc3Cl)C(=O)[C@@H]2[C@@H]2CCCN21 | > 50 µM (inactive)
O=S(=O)(c1ccc(F)cc1)N1CCCC1c1ccnc(Nc2cnccn2)n1 (centres undefined) | > 50 µM (inactive)
CC1=C(C)C(N(c2ccccc2)c2ccccc2)N(CCC(C)C)C1=O (centres undefined) | 24.9 µM
COc1ccc(Nc2nc3c(S(=O)(=O)c4ccc(C)cc4)nnn3c3ccsc23)c(OC)c1 | 2.01 µM
COc1ccc(C2SCC(=O)Nc3c2c(=O)[nH]n3C2CCCCC2)cc1 (centres undefined) | 24.6 µM

Compound | IC50
O=c1[nH]cccc1NS(=O)(=O)c1ccc(F)cc1 | > 50 µM (inactive)
CCOC(=O)c1cc2c(ccn2C)n1CC(=O)N1CCc2ccccc2C1 | > 50 µM (inactive)
COc1ccc(C)cc1NC(=O)CSc1nc(C)nc2c1oc1ccccc12 | 22 µM
CC(CCc1ccccc1)NC(=O)Cn1c(=O)c2cccn2c2ccccc21 (centres undefined) | 14.3 µM
COc1ccc(NC(=O)CC(=O)c2ccc([N+](=O)[O-])cc2)cc1S(=O)(=O)Nc1ccc(Br)cc1 | 28.1 µM
O=C(O)CCCCCN1C(=O)CC(c2ccc(Cl)cc2)CC1=O | 16.7 µM
Cc1ccc2[nH]cc(S(=O)(=O)c3ccc(C)c(F)c3)c(=O)c2c1 | 19.9 µM
CCc1nc2c(NC(=O)Nc3cccc(C(=O)OC)c3)cccn2n1 | 2.91 µM
CCOC(=O)C1CCN(C(=O)c2ccc3c(c2)NC(=O)C2CCCN32)CC1 (centres undefined) | > 50 µM (inactive)
NC(=O)C1(N2CCCCC2)CCN(C(=O)c2[nH]nc3c2CCc2ccccc2-3)CC1 | > 50 µM (inactive)
Cc1ccc2nc(N3CCc4ccccc4C3)c3nncn3c2c1 | > 50 µM (inactive)
Cn1cccc1C(=O)N1CCCC2(C1)Nc1cccnc1NC2=NC1CCCC1 (centres undefined) | > 50 µM (inactive)
CC1CS(=O)(=O)N(c2ccc(C(=O)Nc3ccc4c(c3)OCCO4)cc2)C1=O (centres undefined) | 7.25 µM
N[C@@H](Cc1ccccc1)C(=O)N1CCC2(CC1)CN(C(=O)c1ccc(Cl)cc1)CCO2 | > 50 µM (inactive)
O=C(NCc1ccccc1Cl)c1ccc2cn[nH]c2c1 | 10.1 µM
O=C(NCc1ccc(-c2nc3cnccc3o2)cc1)c1cc2ccccc2o1 | 4.43 µM
CCc1ccc(-n2c(=O)c3ccccc3n(CC(=O)NCCC3=CCCCC3)c2=O)cc1 | 14.5 µM
O=[N+]([O-])c1ccc(N2CCN(c3ncnc4c3[nH]c3ccc(F)cc34)CC2)cc1 | 0.225 µM
COc1ccccc1NC(=O)CSC1=NC2(CCCCC2)Nc2ccccc21 | > 50 µM (inactive)
CCOC(=O)c1cccc(NC(=O)Nc2cccn3nc(C)nc23)c1 | 0.766 µM
O=C(Nc1nnc2n1CCCS2)c1cc2ccccc2o1 | 4.43 µM
COc1cccc2cc(C(=O)Nc3ccc4c(c3)OCCO4)oc12 | 9.86 µM
CC(=O)N1CCc2cc(CNC(=O)Nc3cc(C)ccc3C)ccc21 | 46.7 µM
CCOc1ccc(CCNC(=O)c2ccc3c(c2)N(CC)C(=O)c2ccccc2S3)cc1OCC | 1.89 µM
Cc1cc(=O)n(CC(=O)NCc2ccccc2F)c2c1c(C)nn2-c1ccccc1 | 18.5 µM

Compound | IC50
Cc1ccc([N+](=O)[O-])cc1S(=O)(=O)Nc1cc2sc(=O)oc2c2ccccc12 | 13.6 µM
Cc1ccc(Cn2c(=O)c3ccccc3n3c(CCC(=O)N4CCN(c5ccccn5)CC4)nnc23)cc1 | 5.55 µM
O=C(Cn1c(=O)n(CC(=O)NC2CCCC2)c(=O)c2ccccc21)Nc1cc(Cl)ccc1Cl | 4.52 µM
O=C(Nc1ccc2ccccc2n1)c1ccc(Cl)cc1 | 6.26 µM
COc1ccc(O)c(C(=O)OCc2cc(=O)oc3ccc4ccccc4c23)c1 | > 50 µM (inactive)
Cc1c(-c2ccccc2)oc2c(C(=O)OCC(=O)Nc3ccccc3F)cccc2c1=O | > 50 µM (inactive)
CS(=O)(=O)c1ccc(NC(=O)C2CN(c3nc4c(F)cccc4s3)C2)cc1 | 21.3 µM
O=C(NCCc1ccccn1)c1cc(-c2ccc(Br)cc2)n[nH]1 | 13.8 µM
COc1ccc(-c2cc3nc([C@@H](C)NC(=O)c4ccc5c(c4)OCO5)nn3cn2)cc1 | 35.1 µM
Cc1nc(-c2noc(-c3ccncc3)n2)cn1CC(=O)N1CCN(c2ccc(F)cc2)CC1 | 37.6 µM
CCOc1ccccc1NC(=O)COC(=O)C(c1ccccc1)c1ccccc1 | > 50 µM (inactive)
O=C1CC(c2cc3c(cc2Br)OCO3)c2cc3c(cc2N1)OCCO3 (centres undefined) | 14.9 µM
O=C(COc1ccc2ccccc2c1)Nc1cccc2ccccc12 | 22.4 µM
CCc1nc(N2CCCC2=O)sc1C(=O)Nc1cccc(C(C)=O)c1 | 17.1 µM
CSc1nccc(-c2ccc(F)cc2)c1C#N | 46.2 µM
O=C(Nc1cccc(F)c1)c1ncoc1-c1ccco1 | > 50 µM (inactive)
O=C(NC1CCS(=O)(=O)C1)c1ccc(N2CCC(Cc3ccccc3)CC2)nn1 (centres undefined) | > 50 µM (inactive)
COc1ccc(C)cc1NC(=O)Cc1csc(NC(=O)c2ccc(=O)[nH]c2)n1 | 46.9 µM
Cc1nn(-c2ccccc2)c(C)c1C(=O)OCC(=O)Nc1cccc(Br)c1 | 2.72 µM
COc1ccccc1-c1nc2c3c(ncn2n1)Oc1c(c(C)nn1-c1ccccc1)C3c1cccnc1 (centres undefined) | 40.9 µM
Cc1ccc(-c2nc(Cn3cnc4ccccc4c3=O)cs2)cc1 | 4.97 µM
CCc1nc(-c2cccc(NC(=O)c3ccc(C#N)cc3F)c2)no1 | 36.2 µM
COc1cccc2sc(N3CCN(c4nc5ccccc5s4)CC3)nc12 | > 50 µM (inactive)
O=C(NCc1ccc(-c2nc3cnccc3o2)cc1)c1ccccc1Br | > 50 µM (inactive)
